Experimental data reported in patent US20230172929A1, “NOVEL PERIPHERAL CANNABINOID-1 RECEPTOR ANTAGONISTS” (Yissum Research Development Company of the Hebrew …, priority 2019, published 2023).
“Also recorded” adds a separate entry of the source. Read-outs that look alike come from different tables or passages of the source. Values belong to the compound of their own block, whether it stands above or below them.

Tests used:
CB1R [1] = target: T1, CB1R (Mus musculus, UniProt P47746); experiment: Radioligand binding assay, competition displacement of [3H]CP-55,940, CB1R
T1 construct: crude membranes from mouse brain for CB1R; from tissue; host or cells: mouse brain, crude membranes
T1 sequence (P47746 whole entry): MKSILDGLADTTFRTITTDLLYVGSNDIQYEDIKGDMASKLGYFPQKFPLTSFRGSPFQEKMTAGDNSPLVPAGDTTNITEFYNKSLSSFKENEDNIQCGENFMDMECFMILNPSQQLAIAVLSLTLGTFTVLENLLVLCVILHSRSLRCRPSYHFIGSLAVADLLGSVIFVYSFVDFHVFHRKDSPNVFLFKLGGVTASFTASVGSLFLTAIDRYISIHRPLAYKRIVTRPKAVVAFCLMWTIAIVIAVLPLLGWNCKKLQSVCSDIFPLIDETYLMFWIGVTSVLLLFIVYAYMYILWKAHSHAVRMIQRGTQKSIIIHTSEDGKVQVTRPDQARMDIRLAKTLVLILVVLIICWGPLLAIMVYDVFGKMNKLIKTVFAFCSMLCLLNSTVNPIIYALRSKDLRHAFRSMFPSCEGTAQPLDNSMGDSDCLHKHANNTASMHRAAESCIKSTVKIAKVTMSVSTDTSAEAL
Experimental: Radioligand binding assays: Binding to CB1R and CB2R was assessed in competition displacement assays using [3^H]CP-55,940 as the radioligand and crude membranes from mouse brain for CB1R or human cell membrane for CB2R, as reported previously. All data were in triplicates with Ki values determined from three independent experiments.
CB1R binding: The actual affinity of the 14 candidates was tested in a CB1R competitive binding assay.

CB1R [2] = target: T1, CB1R; experiment: [35S]GTPγS binding, with and without CB1R agonist HU-210; assay type: biochemical; conditions: mouse brain membranes, compounds at 10 μM, with and without HU-210 (100 nM)
Experimental: [^35S]GTPγS binding: Mouse brains (CB1R) or human cell membranes (CB2R) were dissected and P2 membranes prepared and resuspended at ˜2 μg protein/μL in 1 mL assay buffer (50 mM Tris HCl, 9 mM MgCl2, 0.2 mM EGTA, 150 mM NaCl; pH 7.4). Ligand-stimulated [^35S]GTPγS binding was assayed as described previously. Briefly, membranes (10 μg protein) were incubated in assay buffer containing 100 μM GDP, 0.05 nM [^35S]GTPγS, test compounds (HU-210, CP55,940 and tested molecules) at 10 μM, and 1.4 mg/mL fatty acid-free BSA in siliconized glass tubes. Bound ligand was separated from free ligand by vacuum filtration. Non-specific binding was determined using 10 μM GTPS. Basal binding was assayed in the absence of the ligand and in the presence of GDP.
The test was performed for each compound with and without the CB1R agonist HU-210 (100 nM).

[3] = Tissue levels of antagonists (brain, serum) by LC-MS/MS; assay type: in vivo, mice; conditions: 1 hour after single dose
Experimental: Blood was collected, and the mice were perfused with phosphate buffered saline for 1 min to remove drug from the intravascular space before removing the brain and liver. Drug levels in tissue homogenates and plasma were determined by using LC-MS/MS.

mice = experiment: Locomotor activity, CB1R-mediated hyperactivity; assay type: in vivo; conditions: 10 mg/kg ip
Text: Locomotor Activity: Locomotor activity was quantified by the number of disruptions of infrared XYZ beam arrays with a beam spacing of 0.25 cm in the Promethion High-Definition Behavioral Phenotyping System (Sable Instruments, Inc., Las Vegas, Nev., USA).
We next tested whether the reduced brain penetrance of Compound 8/Compound 4 is associated with an attenuation of behavioral effects.

[4] = CB1R competitive binding, mouse brain membranes, [3H]CP-55,940, read-out: Ki
[5] = Mix (not separated), read-out: Ki (μM) Mix
[6] = CB1R competitive binding, values in text, read-out: CB1R Ki
[7] = separated isomer R, read-out: Ki (μM) R

SMILES: CC(C)C(NC(=O)c1ccco1)C(=O)NCC(c1ccccc1Cl)c1c[nH]c2ccccc12 (centres unmarked) [Compound 4]
- Ki (CB1R [1]; [4]): 1.1 µM
- Ki (CB1R [1]; [5]): 1 µM
- activity (agonism, antagonism, inverse agonism) properties (CB1R [2]): neutral antagonism; also recorded: antagonist

SMILES: CC(=O)Nc1ccc(C)c(S(=O)(=O)NCC(c2ccccc2Cl)c2c[nH]c3ccccc23)c1 (centres unmarked) [Compound 13]
- Ki (CB1R [1]; [4]): 6.5 µM

SMILES: CC(C)C(NC(=O)c1ccco1)C(=O)NCC(c1ccccc1Cl)c1c[nH]c2ccccc12 (single isomer, unassigned) [Compound 4-SS]
- Ki (CB1R [1]; separated isomer SS, read-out: Ki (μM) SS): 1.66 µM

SMILES: CC1=C(C(=O)Nc2ccccc2C(F)(F)F)C(c2cccc(Oc3ccccc3)c2)NC(=S)N1 (single isomer, unassigned) [Compound 2-R]
- Ki (CB1R [1]; [7]): 4 µM

SMILES: CC(C)C(NC(=O)c1ccco1)C(=O)NCC(c1ccccc1Cl)c1c[nH]c2ccccc12 (single isomer, unassigned) [Compound 4-SR]
- Ki (CB1R [1]; separated isomer SR, read-out: Ki (μM) SR): 0.48 µM
- brain penetrance (brain levels vs serum levels) ([3]; mice, 10, 20, 50 mg/kg ip): markedly reduced brain penetrance

SMILES: CC1=C(C(=O)Nc2ccccc2C(F)(F)F)C(c2cccc(Oc3ccccc3)c2)NC(=S)N1 (centres unmarked) [Compound 2]
- Ki (CB1R [1]; [4]): 2.1 µM
- Ki (CB1R [1]; [5]): 3.36 µM
- activity (agonism, antagonism, inverse agonism) properties (CB1R [2]): inverse agonists

SMILES: CC(C)C(NC(=O)c1ccco1)C(=O)NCC(c1ccccc1Cl)c1c[nH]c2ccccc12 (single isomer, unassigned) [Compound 4-RR]
- Ki (CB1R [1]; separated isomer RR, read-out: Ki (μM) RR): 0.54 µM
- brain penetrance (brain levels vs serum levels) ([3]; mice, 10, 20, 50 mg/kg ip): markedly reduced brain penetrance

SMILES: CC1=C(C(=O)Nc2ccccc2C(F)(F)F)C(c2cccc(Oc3ccccc3)c2)NC(=S)N1 (single isomer, unassigned) [Compound 2-S]
- Ki (CB1R [1]; separated isomer S, read-out: Ki (μM) S): 6.33 µM

SMILES: Cc1ccc(C(=O)C2SC(Nc3ccc(Cl)cc3)=C(C(=O)Nc3ccc(Cl)cc3)C2=N)cc1 (centres unmarked) [Compound 11]
- Ki (CB1R [1]; [4]): 1.3 µM
- activity (agonism, antagonism, inverse agonism) properties (CB1R [2]): inverse agonists

SMILES: Cc1c(C(=O)NN2CCCCC2)nn(-c2ccc(Cl)cc2Cl)c1-c1ccc(Cl)cc1 [Rimonabant, reference compound]
- inducing CB1R-mediated hyperactivity (activity profile) (mice): induced a marked increase in the activity profile

Other lines, results leading:

- Ki (CB1R [1]; [4]): 0.408 µM
- Ki (CB1R [1]; [6]): ~0.4 µM
- Ki (CB1R [1]; [5]): 0.346 µM
- activity (agonism, antagonism, inverse agonism) properties (CB1R [2]): inverse agonists
- brain penetrance (brain levels vs serum levels) ([3]; mice, 3, 10 and 30 mg/kg ip): markedly reduced brain penetrance
SMILES: CC1=C(C(=O)Nc2ccccc2C(F)(F)F)C(c2ccc(OCc3ccccc3)cc2)NC(=S)N1 (centres unmarked) [Compound 8]

- Ki (CB1R [1]; [4]): 0.414 µM
- Ki (CB1R [1]; [6]): ~0.4 µM
- activity (agonism, antagonism, inverse agonism) properties (CB1R [2]): positive allosteric modulator (PAM)
SMILES: N#Cc1ccc(CC(C#N)(Cc2ccc(C#N)cc2)c2nc(-c3ccc(Cl)c(Cl)c3)cs2)cc1 [Compound 10]

- Ki (CB1R [1]; [7]): 1.3 µM
SMILES: CC(=O)c1cccc(S(=O)(=O)NCCC(=O)NCC(c2ccccc2Cl)c2c[nH]c3ccccc23)c1 (single isomer, unassigned) [Compound 3-R]

- Ki (CB1R [1]; [4]): 1.8 µM
- Ki (CB1R [1]; [5]): 1.1 µM
SMILES: CC(=O)c1cccc(S(=O)(=O)NCCC(=O)NCC(c2ccccc2Cl)c2c[nH]c3ccccc23)c1 (centres unmarked) [Compound 3]

- Ki (CB1R [1]; separated isomer RS, read-out: Ki (μM) RS): 8.46 µM
SMILES: CC(C)C(NC(=O)c1ccco1)C(=O)NCC(c1ccccc1Cl)c1c[nH]c2ccccc12 (single isomer, unassigned) [Compound 4-RS]

- Ki (CB1R [1]; [4]): 3.9 µM
SMILES: CC(NC(=O)Nc1ccccc1)C(=O)NCC(c1ccccc1Cl)c1c[nH]c2ccccc12 (centres unmarked) [Compound 7]

- Ki (CB1R [1]; [4]): 0.938 µM
- Ki (CB1R [1]; [5]): 1.2 µM
- activity (agonism, antagonism, inverse agonism) properties (CB1R [2]): inverse agonists
SMILES: CC(=O)NC(CC(=O)NCC(c1ccccc1Cl)c1c[nH]c2ccccc12)c1ccc(C)cc1 (centres unmarked) [Compound 14]

- Ki (CB1R [1]; [4]): 3.4 µM
- activity (agonism, antagonism, inverse agonism) properties (CB1R [2]): inverse agonists
SMILES: Cc1ccc(NC(=S)Nc2ccc(C(C)C)cc2)c(S(=O)(=O)Nc2ccc(Cl)cc2)c1 [Compound 12]
